Source: US8173651B2, “Pyridine compounds” (Synta Pharmaceuticals Corporation, priority 2003, dated 2012)

What was measured:
[1] = test system: IL-12 production in human PBMC or THP-1 cells; experiment: Human in vitro assay: inhibition of IL-12 production (ELISA) in stimulated PBMC or THP-1 cells; assay type: cell-based; conditions: IFNγ plus LPS or SAC stimulation
Description: The biological activities of a heterocyclic compound can be evaluated by a number of cell-based assays. One of such assays can be conducted using cells from human peripheral blood mononuclear cells (PBMC) or human monocytic cell line (THP-1). The cells are stimulated with a combination of human interferon-γ (IFNγ) and lipopolysaccharide or a combination of IFNγ and Staphylococcus aureus Cowan I in the presence of a test compound. The level of inhibition of IL-12 production can be measured by determining the amount of p70 by using a sandwich ELISA assay with anti-human IL-12 antibodies. IC50 of the test compound can then be determined. Specifically, PBMC or THP-1 cells are incubated with the test compound. Cell viability was assessed using the bioreduction of MTS [3-(4,5-dimethylthiazol-2-yl)-5-(3-carboxymethoxyphenyl)-2-(4-sulfophenyl)-2H-tetrazolium] (Promega, Madison, Wis.).
Reagents. Staphylococcus aureus Cowan I (SAC) is obtained from Calbiochem (La Jolla, Calif.), and lipopolysaccharide (LPS, Serratia marscencens) is obtained from Sigma (St. Louis, Mo.). Human and mouse recombinant IFNγ are purchased from Boehringer Mannheim (Mannheim, Germany) and Pharmingen (San Diego, Calif.), respectively.
Human In Vitro Assay. Human PBMC were isolated by centrifugation using Ficoll-Paque (Pharmacia Biotech, Uppsala, Sweden) and prepared in RPMI medium supplemented with 10% fetal calf serum (FCS), 100 U/mL penicillin, and 100 μg/mL streptomycin. PBMC were plated in wells of a 96-well plate at a concentration of 5×10^5 cells/well, and primed by adding IFNγ (30 U/mL) for 22 h and stimulated by adding LPS (1 vg/mL), or by adding IFNγ (100 U/mL) and then stimulated by adding SAC (0.01%). A test pyridine compound was dissolved in DMSO, and added to wells of the 96-well plate. The final DMSO concentration was adjusted to 0.25% in all cultures, including the compound-free control. Human THP-1 cells were plated in wells, primed by adding IFNγ (100 U/mL) for 22 h and stimulated by adding SAC (0.025%) in the presence of different concentrations of the pyridine compound. Cell-free supernatants were taken 18 h later for measurement of cytokines. Cell viability was assessed using the bioreduction of MTS. Cell survival was estimated by determining the ratio of the absorbance in compound-treated groups versus compound-free control.
The supernatant was assayed for the amount of IL-12p40, IL-12p70, or IL-10 by using a sandwich ELISA with anti-human antibodies, i.e., a Human IL-12 p40 ELISA kit from R&D Systems (Berkeley, Calif.), and a Human IL-12 p70 or IL-10 ELISA kit from Endogen (Cambridge, Mass.). Assays were based on the manufacturer's instructions.
The biological activities of pyridine compounds were tested on human PBMC or THP-1 cells.

[2] = test system: adjuvant arthritis (AA) in female Lewis rats; experiment: In vivo adjuvant arthritis assay in rats; set-up: species or system rat; conditions: oral, once a day for 7 days (day 7-14); dose-dependent; experiments repeated four times; FIG. 1
Method: Treatment of adjuvant arthritis in rats: Adjuvant arthritis (AA) was induced in female Lewis rats by the intracutaneous injection (base of the tail) of 0.1 mL of a 10 mg/mL bacterial suspension made from ground, heat-killed Mycobacterium tuberculosis H37Ra suspended in incomplete Freund's adjuvant. Rats were given a test compound orally once a day for 7 days (day 7-14), starting day 7 after mycobacterium induction. The development of polyarthritis was monitored daily by macroscopic inspection and assignment of an arthritis index to each animal, during the critical period (days 10 to 25 post-immunization).
The intensity of polyarthritis was scored according to the following scheme: (a) Grade each paw from 0 to 3 based on erythema, swelling, and deformity of the joints: 0 for no erythema or swelling; 0.5 if swelling is detectable in at least one joint; 1 for mild swelling and erythema; 2 for swelling and erythema of both tarsus and carpus; and 3 for ankylosis and bony deformity.
Maximum score for all 4 paws was thus 12. (b) Grade for other parts of the body: for each ear, 0.5 for redness and another 0.5 if knots are present; 1 for connective tissue swelling (saddle nose); and 1 for the presence of knots or kinks in the tail. The highest possible arthritic index was 16.
Experiments with the AA model were repeated four times.

Row | Structure (SMILES) | IC50 [1] | arthritic score [2] | development of polyarthritis [2]
1 | COc1ccc(CCOc2cc(NN=Cc3c[nH]c4ccccc34)cc(N3CCOCC3)n2)cc1OC [Compound 1, N-{2-[2-(3,4-Dimethoxy-phenyl)-ethoxy]-6-morpholin-4-yl-pyridin-4-yl}-N′-(1H-indol-3-ylmethylene)-hydrazine] | 10 nM | – | –
2 | COc1ccc(CCOc2cc(NN=Cc3c[nH]c4ccccc34)nc(N3CCOCC3)c2)cc1OC [Compound 3, N-{4-[2-(3,4-Dimethoxy-phenyl)-ethoxy]-6-morpholin-4-yl-pyridin-2-yl}-N′-(1H-indol-3-ylmethylene)-hydrazine] | 800 nM | – | –
3 | Cc1cccc(/C=N/Nc2cc(N3CCOCC3)cc(OCCN3CCOCC3)n2)c1 [Compound 14, N-(3-Methyl-benzylidene)-N′-[4-morpholin-4-yl-6-(2-morpholin-4-yl-ethoxy)-pyridin-2-yl]-hydrazine] | 25 nM | reproducibly reduced the arthritic score | delayed the development of polyarthritis
4 | C(=N\Nc1cc(N2CCOCC2)cc(OCCN2CCOCC2)n1)/c1c[nH]c2ccccc12 [Compound 16, N-(1H-Indol-3-ylmethylene)-N′-[4-morpholin-4-yl-6-(2-morpholin-4-yl-ethoxy)-pyridin-2-yl]-hydrazine] | 36.6 nM | – | –
5 | COc1ccc(CCOc2cc(NN=Cc3cccc(C)c3)nc(N3CCOCC3)c2)cc1OC [Compound 5, N-{4-[2-(3,4-Dimethoxy-phenyl)-ethoxy]-6-morpholin-4-yl-pyridin-2-yl}-N′-(3-methyl-benzylidene)-hydrazine] | 2000 nM | – | –
6 | COc1ccc(CCOc2cc(N3CCOCC3)cc(NN=Cc3cccc(C)c3)n2)cc1OC [Compound 7, N-{6-[2-(3,4-Dimethoxy-phenyl)-ethoxy]-4-morpholin-4-yl-pyridin-2-yl}-N′-(3-methyl-benzylidene)-hydrazine] | 14.1 nM | – | –
7 | COc1ccc(CCOc2cc(N3CCOCC3)cc(NN=Cc3c[nH]c4ccccc34)n2)cc1OC [Compound 2, N-{6-[2-(3,4-Dimethoxy-phenyl)-ethoxy]-4-morpholin-4-yl-pyridin-2-yl}-N′-(1H-indol-3-ylmethylene)-hydrazine] | 5 nM | – | –
8 | COc1ccc(CCOc2cc(Nc3cccc(C)c3)nc(N3CCOCC3)c2)cc1OC [Compound 10, {4-[2-(3,4-Dimethoxy-phenyl)-ethoxy]-6-morpholin-4-yl-pyridin-2-yl}-m-tolyl-amine] | 5000 nM | – | –
9 | Cc1cccc(/C=N/Nc2cc(N3CCOCC3)cc(OCCN3CCOCC3)[n+]2[O-])c1 [Compound 21, N-(3-Methyl-benzylidene)-N′-[4-morpholin-4-yl-6-(2-morpholin-4-yl-ethoxy)-1-oxy-pyridin-2-yl]-hydrazine] | 86 nM | – | –
10 | Cc1cccc(/C=N/Nc2cc(OCCN3CCOC3=O)cc(N3CCOCC3)n2)c1 [Compound 18, 3-(2-{2-[N′-(3-Methyl-benzylidene)-hydrazino]-6-morpholin-4-yl-pyridin-4-yloxy}-ethyl)-oxazolidin-2-one] | 927 nM | – | –
11 | COc1ccc(CCOc2cc(NN=Cc3cccc(C)c3)cc(N3CCOCC3)n2)cc1OC [Compound 6, N-{2-[2-(3,4-Dimethoxy-phenyl)-ethoxy]-6-morpholin-4-yl-pyridin-4-yl}-N′-(3-methyl-benzylidene)-hydrazine] | 5 nM | – | –
12 | Cc1cccc(C=NNc2cc(OCCN3CCOC3=O)cc(N3CCOCC3)n2)c1 [Compound 11, 3-(2-{2-[N′-(3-methyl-benzylidene)-hydrazino]-6-morpholin-4-yl-pyridin-4-yloxy}-ethyl)oxazolidin-2-one] | 927 nM | – | –
13 | Cc1cccc(C=NNc2nc(OCCN3CCOCC3)c(F)c(N3CCOCC3)c2F)c1 [Compound 12, N-[3,5-Difluoro-4-morpholin-4-yl-6-(2-morpholin-4-yl-ethoxy)-pyridin-2-yl]-N′-(3-methyl-benzylidene)-hydrazine] | > 1000 nM | – | –
14 | Cc1ccc(N)c(/C=N/Nc2cc(N3CCOCC3)cc(OCCN3CCOCC3)n2)c1 [Compound 20, 4-Methyl-2-{[4-morpholin-4-yl-6-(2-morpholin-4-yl-ethoxy)-pyridin-2-yl]-hydrazonomethyl}-phenylamine] | 11.4 nM | – | –
15 | Cc1cccc(/C=N/N(C)c2cc(N3CCOCC3)cc(OCCN3CCOCC3)n2)c1 [Compound 17, N-Methyl-N′-(3-methyl-benzylidene)-N-[4-morpholin-4-yl-6-(2-morpholin-4-yl-ethoxy)-pyridin-2-yl]-hydrazine] | 14.2 nM | – | –
16 | COc1ccc(CCOc2cc(Nc3ccc4[nH]c(C)c(C)c4c3)nc(N3CCOCC3)c2)cc1OC [Compound 9, {4-[2-(3,4-Dimethoxy-phenyl)-ethoxy]-6-morpholin-4-yl-pyridin-2-yl}-(2,3-dimethyl-1H-indol-5-yl)-amine] | 350 nM | – | –
17 | C(=N\Nc1cc(N2CCOCC2)cc(OCCN2CCOCC2)n1)/c1ccoc1 [Compound 19, N-Furan-3-ylmethylene-N′-[4-morpholin-4-yl-6-(2-morpholin-4-yl-ethoxy)-pyridin-2-yl]-hydrazine] | 5000 nM | – | –
18 | COc1ccc(CCOc2cc(N3CCOCC3)cc(Nc3ccc4[nH]c(C)c(C)c4c3)n2)cc1OC [Compound 4, {6-[2-(3,4-Dimethoxy-phenyl)-ethoxy]-4-morpholin-4-yl-pyridin-2-yl}-(2,3-dimethyl-1H-indol-5-yl)-amine] | 197 nM | – | –
19 | COc1ccc(CCOc2cc(Nc3ccc4[nH]c(C)c(C)c4c3)cc(N3CCOCC3)n2)cc1OC [Compound 8, {2-[2-(3,4-Dimethoxy-phenyl)-ethoxy]-6-morpholin-4-yl-pyridin-4-yl}-(2,3-dimethyl-1H-indol-5-yl)-amine] | 28 nM | – | –
20 | Cc1cccc(/C=N/Nc2c(F)c(OCCN3CCOCC3)nc(N3CCOCC3)c2F)c1 [Compound 13, N-[3,5-Difluoro-2-morpholin-4-yl-6-(2-morpholin-4-yl-ethoxy)-pyridin-4-yl]-N′-(3-methyl-benzylidene)-hydrazine] | 148 nM | – | –
